Patent US10576147B2, “Muramyl peptide derivative compound, synthesis and uses thereof” (BHARAT BIOTECH INTERNATIONAL LIMITED, priority 2015, dated 2020)
Converted amounts (≈) assume the structure as drawn.

Tests used:
J774.2A cells = experiment: Cytotoxicity assay (MTT); type: cell-based; conditions: 24 hrs, read-out: IC50 (50% cell death or toxicity)
Method: Details of an assay are as explained in example 2.2.
J774.2A cells (2×10^4/well) were plated and incubated overnight. Next day, cells were treated with various concentrations of MDP-MN (10 fold dilutions with a concentration ranging from 0.005 mg/ml to 0.5 mg/ml & 2 mg/ml) and cultured for 24 hrs. Supernatant was discarded and cells were treated with 100 μl of MTT [3-(4,5-Dimethylthiazol-2-yl)-2,5-Diphenyltetrazolium Bromide] (5 mg/ml) and incubated for 3-4 hrs until formozan crystals were formed. Later, supernatant was discarded and crystals were dissolved with DMSO for 5-10 min. Absorbance was read at 540 nm. FIG. 2 represents cell toxicity effect of MDP-MN. X-axis represents concentration in log scale and Y-axis represents % toxicity.

BALB/c mice [1] = experiment: OVA-specific IgG after immunization (indirect ELISA); type: in vivo; conditions: s.c. Days 1 and 15
Method: Male BALB/c mice were immunized subcutaneously with OVA 100 μg alone or with OVA 100 μg dissolved in saline containing analogues (7.5, 15 or 30 μg) on Days 1 and 15. Sera were collected 2 weeks after the last immunization. OVA-specific IgG antibodies in the sera were measured by an Indirect ELISA. The values are presented as log 2 titre.

Wistar rats = experiment: Maximum Tolerated Dose test; type: in vivo, rat
Method: Wistar rats (n=6, 3M & 3F) were administered intramuscularly (i.m) with MDP-MN containing fixed adjuvant dose of 10, 50 and 100 μg/animal/200 μl in an ascending manner. Animals were observed daily for a period of 14 days for clinical signs & mortality. Body weight was measured daily. Food and water consumed by animals were also monitored daily for any abnormalities & Food and water intake per animal was also calculated. Body temperature was measured for every 4 hours upto 24 hrs, later once in daily upto 7 days and then followed by alternate day upto day 14. Rats were sacrificed on day 14 and organs/tissues such as site of injection, spleen, thymus, brain, lungs, Heart, liver, Kidney were collected and done macroscopic examination. […] It indicates rats are tolerable even at high dose (100 μg/animal). Blood was collected between 24-36 hrs were tested for CRP levels, after the injection. […] Moreover, absence of pro-inflammatory cytokines, CRP levels indicates, MDP-MN is not pyrogenic.

human NOD2 = target: T1, human NOD2 (Homo sapiens, UniProt Q9HC29); experiment: NOD2 specific reporter assay (SEAP); type: cell-based
T1 construct: host or cells: HEK 293 (HEK-Blue Human NOD2 reporter cells)
T1 sequence (Q9HC29 whole entry): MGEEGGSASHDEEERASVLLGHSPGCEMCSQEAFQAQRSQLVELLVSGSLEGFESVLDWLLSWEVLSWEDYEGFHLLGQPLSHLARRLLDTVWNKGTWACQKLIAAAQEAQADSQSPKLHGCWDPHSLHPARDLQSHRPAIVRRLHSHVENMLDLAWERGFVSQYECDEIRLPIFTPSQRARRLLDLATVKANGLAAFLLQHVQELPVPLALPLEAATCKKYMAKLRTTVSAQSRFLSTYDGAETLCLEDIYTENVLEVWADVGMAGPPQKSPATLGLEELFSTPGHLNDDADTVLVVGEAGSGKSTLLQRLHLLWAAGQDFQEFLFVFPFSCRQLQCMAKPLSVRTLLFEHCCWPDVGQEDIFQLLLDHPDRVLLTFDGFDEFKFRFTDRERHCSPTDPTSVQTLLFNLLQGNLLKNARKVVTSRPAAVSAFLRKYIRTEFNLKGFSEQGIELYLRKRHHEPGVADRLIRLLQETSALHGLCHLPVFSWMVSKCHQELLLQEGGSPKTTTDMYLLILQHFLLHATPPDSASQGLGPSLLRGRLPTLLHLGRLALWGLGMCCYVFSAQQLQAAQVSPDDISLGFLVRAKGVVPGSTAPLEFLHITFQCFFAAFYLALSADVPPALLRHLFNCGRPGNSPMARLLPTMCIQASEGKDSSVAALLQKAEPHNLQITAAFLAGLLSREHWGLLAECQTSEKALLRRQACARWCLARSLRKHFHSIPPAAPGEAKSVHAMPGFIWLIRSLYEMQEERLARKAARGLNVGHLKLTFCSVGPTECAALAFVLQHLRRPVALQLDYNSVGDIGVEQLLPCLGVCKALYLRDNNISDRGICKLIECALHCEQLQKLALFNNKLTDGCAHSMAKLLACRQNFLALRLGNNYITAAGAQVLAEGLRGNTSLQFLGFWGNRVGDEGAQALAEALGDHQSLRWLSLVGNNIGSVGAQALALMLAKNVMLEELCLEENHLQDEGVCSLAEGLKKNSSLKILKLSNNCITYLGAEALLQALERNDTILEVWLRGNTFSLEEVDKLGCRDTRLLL
Method: Muramyl dipeptide molecules have the ability to bind to NOD2 receptors that are present on […] the immune cells, so as to stimulate immune response. NOD2 (Nucleotide oligomerization domain) receptor is an intracellular pattern recognition receptor (PRRs) recognizes muramyl dipeptide derivatives and stimulates cascade of signalling pathways to induce immune response. […] These cells were prepared by co-transfection of human NOD2 gene and codon-optimized SEAP (secreted embryonic alkaline phosphatase) reporter gene into HEK 293 cells. Upon stimulation of cells with muramyl dipeptide derivative, NFkB gets activated, which intum secrets SEAP and it was measured in cell supernatant. Experimental details of this in-vitro assay are given as example 2.1.
HEK—Blue Human NOD2 reporter cells (5×10^4/well) were plated and cultured overnight in a humidified CO2 incubator at 37° C. […] Supernatant was collected and treated with Quanti blue detection reagent at 37° C. for 15-30 min. Absorbance was read at 630 nm. Dose response curve generated by plotting concentration of adjuvant on X-axis and % response on the Y-axis is as shown in FIG. 1. To generate dose response curve, highest absorbance shown at tested concentration was taken as 100% response and the least absorbance was taken as 0% response. Effective concentration at 50% (EC50) response was determined from the dose response curve.

BALB/c mice [2] = experiment: TH1:TH2 index from HBsAg specific IgG isotypes; type: in vivo
Excerpt: It is known that, IgG subclasses produced after the immunization against given antigen, primarily determines the function of the antibody or indirectly measures the relative contribution of TH1 versus TH2 type cytokine induction. More specifically, production of IgG1 antibodies induces TH2 type cytokines, whereas, production of IgG2a & IgG3 antibodies induces TH1 type cytokines. […] In this context, in the present invention, we determined the levels of IgG isotypes (IgG1, IgG2a & IgG3), raised against HBsAg in the presence or absence of MDP-MN (at 10 & 50 μg/mouse) and calculated TH1: TH2 index then calculated as ([IgG2a+IgG3]/2)/(IgG1). Details of assay protocol as described below as in example 3.1.3. According to such calculation, an index value <1 stands for a TH2 polarization; an index value >1 stands for a TH1 polarization.
Analysis of antigen specific IgG antibody subclasses (isotypes namely IgG1 or IgG2a or IgG3) was performed as mentioned in example 3.1.2, except at one step, where goat anti-mouse IgG1 or IgG2a or IgG3 HRP was used at a dilution of 1:5000 (in place of goat anti-mouse IgG) TH1:TH2 index obtained at 10 & 50 μg/mouse of MDP-MN is as shown in FIG. 5c.

mouse = experiment: rPvRII specific IgG endpoint titer; type: in vivo; conditions: MDP-MN 10 μg/mouse

C[C@H](NC(=O)[C@@H](C)O[C@H]1[C@H](O)[C@@H](CO)OC(O)[C@@H]1NC(=O)[C@H](O)CO)C(=O)N[C@H](CCC(=O)O)C(N)=O (stereo partly drawn) [MDP-MN, (4R)-5-amino-4-((2S)-2-((2R)-2-(((3R,4R,5S,6R)-3-((2,3-dihydroxypropanamido))-2,5-dihydroxy-6-(hydroxymethyl)tetrahydro-2H-pyran-4-yl)oxy)propanamido)propanamido)-5-oxopentanoic acid]
IC50 (J774.2A cells): 99.2 µg/mL (≈ 184 µM) | Log(2) IgG Antibody Titre (BALB/c mice [1]; adjuvant 7.5 μg per mouse with OVA 100 μg): nearly equal antibody titer | Log(2) IgG Antibody Titre (BALB/c mice [1]; adjuvant 15 μg per mouse with OVA 100 μg): highest serum IgG responses | Log(2) IgG Antibody Titre (BALB/c mice [1]; adjuvant 30 μg per mouse with OVA 100 μg): highest serum IgG responses | tolerated dose (Wistar rats; Wistar rats, i.m., 14 days observation, highest dose tested): 100 μg/animal | CRP levels (Wistar rats; blood 24-36 hrs after injection, high dose (100 μg/animal), normal in rats 200-550 μg/ml): normal | macroscopic examination of organs/tissues (Wistar rats; day 14, site of injection, spleen, thymus, brain, lungs, heart, liver, kidney): No significant lesions or abnormalities | clinical signs (Wistar rats; even at tested high dose (100 μg/animal), 14 days): no significant clinical signs | weight gain (Wistar rats; high dose (100 μg/animal), compared to untreated animals): weight gain is less | mortality (Wistar rats; i.m. 10, 50 and 100 μg/animal, 14 days): no mortality | tolerated dose (Wistar rats; rat, Maximum Tolerated Dose test): ≤ 100 μg/rat | pyrogenicity (conclusion from cytokines and CRP levels) (Wistar rats; rat, in vivo): not pyrogenic | body temperature (Wistar rats; upto 14 days): no temperature raise | EC50 (human NOD2; HEK-Blue Human NOD2 reporter cells, SEAP absorbance 630 nm, 24-72 hrs, read-out: EC50 (half maximal response) (converted)): 2490 nM | % response (human NOD2; at 0.01 μg/ml, normalized to least absorbance): 0% | % response (human NOD2; at 10 μg/ml (plateau), normalized to highest absorbance): 100% | TH1:TH2 index ([IgG2a+IgG3]/2)/(IgG1) (BALB/c mice [2]; HBsAg in the presence of MDP-MN (10 & 50 μg/mouse)): 2.5 | TH1 type cytokines induction (BALB/c mice [2]; mice vaccinated with Hepatitis B surface antigen in presence of MDP-MN): induced TH1 type cytokines | increase of antibody titer vs rPvRII alone (mouse): 4 fold
